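Grown in 96-well plates, cells were treated for 48 hours with each compound at five concentrations. Insufficient inhibition: endpoint recorded as highest concentration tested. GI50 marks 50% less growth.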 The source made the active and inactive calls. No stated cut-off is given here; in the data, active = GI50 up to about 1.1 µM and inactive = higher.
Tests used:
Assay in all cases: NCI tumour cell line growth inhibition, 48 h
HT-29 = test system: HT-29
KM12 = test system: KM12
Malme-3M = test system: Malme-3M
HCT-116 = test system: HCT-116
NCI-H460 = test system: NCI-H460
IGROV-1 = test system: IGROV-1
SK-MEL-5 = test system: SK-MEL-5
SK-MEL-2 = test system: SK-MEL-2
A498 = test system: A498
SF-295 = test system: SF-295
SW-620 = test system: SW-620
HOP-92 = test system: HOP-92
NCI-H23 = test system: NCI-H23
HL-60 = test system: HL-60
SF-268 = test system: SF-268
SK-MEL-28 = test system: SK-MEL-28
SNB-19 = test system: SNB-19
SK-OV-3 = test system: SK-OV-3
RXF 393 = test system: RXF 393
UO-31 = test system: UO-31

Compound	GI50 (HT-29)	GI50 (KM12)	GI50 (Malme-3M)	GI50 (HCT-116)	GI50 (NCI-H460)	GI50 (IGROV-1)	GI50 (SK-MEL-5)	GI50 (SK-MEL-2)	GI50 (A498)	GI50 (SF-295)	GI50 (SW-620)	GI50 (HOP-92)	GI50 (NCI-H23)	GI50 (HL-60)	GI50 (SF-268)	GI50 (SK-MEL-28)	GI50 (SNB-19)	GI50 (SK-OV-3)	GI50 (RXF 393)	GI50 (UO-31)
CCOC(=O)c1c[nH]c2cc3c(cc2c1=O)CCS3(=O)=O.CCOC(=O)c1c[nH]c2ccc3c(c2c1=O)S(=O)(=O)CC3	> 100 µM (inactive)	> 100 µM (inactive)	> 100 µM (inactive)	> 100 µM (inactive)	> 100 µM (inactive)	> 100 µM (inactive)	> 100 µM (inactive)	> 100 µM (inactive)	> 100 µM (inactive)	> 100 µM (inactive)	> 100 µM (inactive)	> 100 µM (inactive)	> 100 µM (inactive)	> 100 µM (inactive)	> 100 µM (inactive)	> 100 µM (inactive)	> 100 µM (inactive)	> 100 µM (inactive)	> 100 µM (inactive)	> 100 µM (inactive)
O=C1NC(=O)C(CCO)(c2ccccc2)C(=O)N1	> 100 µM (inactive)	> 100 µM (inactive)	> 100 µM (inactive)	> 100 µM (inactive)	> 100 µM (inactive)	> 100 µM (inactive)	> 100 µM (inactive)	> 100 µM (inactive)	> 100 µM (inactive)	> 100 µM (inactive)	> 100 µM (inactive)	> 100 µM (inactive)	> 100 µM (inactive)	> 100 µM (inactive)	> 100 µM (inactive)	> 100 µM (inactive)	> 100 µM (inactive)	> 100 µM (inactive)	> 100 µM (inactive)	> 100 µM (inactive)
COc1ccc2[nH]c3c(C)c4ccncc4c(C)c3c2c1	0.212 µM (active)	0.152 µM (active)	1.44 µM (inactive)	0.0425 µM (active)	0.0292 µM (active)	0.289 µM (active)	1.26 µM (inactive)	1.86 µM (inactive)	0.504 µM (active)	0.521 µM (active)	0.0918 µM (active)	0.23 µM (active)	0.34 µM (active)	0.532 µM (active)	0.429 µM (active)	2.09 µM (inactive)	0.532 µM (active)	0.75 µM (active)	0.1 µM (active)	1.42 µM (inactive)
O=C/C(=C1/C=Cc2cc([N+](=O)[O-])ccc2S1)c1ccccc1	> 100 µM (inactive)		> 100 µM (inactive)	> 100 µM (inactive)	> 100 µM (inactive)	> 100 µM (inactive)	> 100 µM (inactive)	> 100 µM (inactive)	> 100 µM (inactive)	> 100 µM (inactive)		> 100 µM (inactive)	> 100 µM (inactive)	> 100 µM (inactive)	> 100 µM (inactive)	> 100 µM (inactive)	> 100 µM (inactive)	> 100 µM (inactive)	> 100 µM (inactive)	> 100 µM (inactive)
O=C(O)c1ccc(Nc2c3ccccc3nc3ccccc23)cc1	97.9 µM (inactive)	> 100 µM (inactive)	43.3 µM (inactive)	45 µM (inactive)	22.6 µM (inactive)	> 100 µM (inactive)	> 68.1 µM (inactive)	> 100 µM (inactive)	52.6 µM (inactive)	45.5 µM (inactive)	59.7 µM (inactive)	> 65 µM (inactive)	> 72.3 µM (inactive)	47.9 µM (inactive)	67.9 µM (inactive)	> 100 µM (inactive)	> 86.7 µM (inactive)	> 100 µM (inactive)	> 100 µM (inactive)	54.6 µM (inactive)
c1ccc2c(c1)NCc1cc3ccccc3nc1O2	71.6 µM (inactive)	> 100 µM (inactive)	> 100 µM (inactive)	> 100 µM (inactive)	> 100 µM (inactive)	> 100 µM (inactive)	> 100 µM (inactive)	> 100 µM (inactive)	> 75.5 µM (inactive)	> 100 µM (inactive)	> 100 µM (inactive)	> 100 µM (inactive)	> 100 µM (inactive)	55.6 µM (inactive)	> 100 µM (inactive)	> 100 µM (inactive)	> 100 µM (inactive)	> 100 µM (inactive)	> 100 µM (inactive)	26.9 µM (inactive)

Reference: ChEMBL document CHEMBL1201862, “PubChem BioAssay data set” (2004)
